Data: PMC8123651, “Flavones from Combretum quadrangulare Growing in Vietnam and Their Alpha-Glucosidase Inhibitory Activity” (Molecules, 2021)

Experiments:
[1] = test system: methicillin-resistant Staphylococcus aureus (MRSA); assay: Antibacterial activity, agar well diffusion method; format: cell-based; settings: 50 μg of each compound per well, 8-mm wells, read-out: Diameter of inhibition zone
Method: Methicillin-resistant Staphylococcus aureus (MRSA), extended spectrum beta-lactamase-producing Escherichia coli (ESBL-producing E. coli) and the agar well diffusion method were used to evaluate the antibacterial activity of the isolated compounds [29]. The strains were cultured in nutrient broth at 37 °C for 18 h and diluted with steriled 0.9% NaCl to obtain the 1.5 × 10^8 CFU/mL bacterial solution. Then, 100 μL of the bacterial solution was spread on Mueller–Hinton agar (MHA) plate on which 8-mm wells were created aseptically with tips. The isolated compounds were dissolved in dimethyl sulfoxide at the concentration of 1 mg/mL and 50 μL of each compound solution was applied in each well. The plates were incubated at 37 °C for 16–18 h and the diameters of the inhibtion zones were measured. Dimethyl sulfoxide and apramycin were used as controls in this experiment.

[2] = target: T1, alpha-glucosidase (Saccharomyces cerevisiae, UniProt P53341); assay: Inhibitory type assay on alpha-glucosidase (Lineweaver–Burk plots); format: biochemical; settings: Vmax decreased while Km remained constant
Method: In order to examine the inhibition mechanism of compound 11, their activity was measured at the different concentration of pNPG.
Enzyme inhibition due to various concentrations of the 8 and 11 compounds were evaluated by monitoring the effects of different concentrations of the substrate. For Lineweaver–Burk double reciprocal plots 1/enzyme velocity (1/V) vs. 1/substrate concentration (1/[S]), the inhibition type was determined using various concentrations of pNPG (1 mM, 2 mM, and 4 mM) as a substrate in the presence of different concentrations of the test compounds (0; 4.96; 9.92 and 19.84 µM for 8 and 0; […]; 43.03 and 86.06 µM for 11). The experiments were carried out in 3 replicates. The mixtures were incubated at 37 °C and the optical density was measured at 405 nm every 1 min for 30 min with the Clariostar Labtech microplate reader (Ortenberg, Germany). Optimal concentrations of the tested compound were chosen based on the IC50 value. The inhibition constants were obtained graphically from secondary plots (Microsoft Excel 2010, Washington, WA, USA).

[3] = target: T1, alpha-glucosidase; assay: Alpha-glucosidase inhibition assay (pNPG substrate); format: biochemical; settings: means ± standard errors of three independent experiments; read-out: Alpha-glucosidase inhibitory IC50
Method: The alpha-glucosidase (0.2 U/mL) and substrate (5.0 mM p-nitrophenyl-α-D-glucopyranoside) were dissolveed in 100 mM of pH 6.9 sodium phosphate buffer. The inhibitor (50 µL) was preincubated with alpha-glucosidase at 37 °C for 20 min, and then the substrate (40 µL) was added to the reaction mixture. The enzymatic reaction was carried out at 37 °C for 20 min and stopped by adding 0.2 M of Na2CO3 (130 μL). Enzymatic activity was quantified by measuring absorbance at 405 nm. All samples were analyzed in triplicate at five different concentrations around the IC50 values, and the mean values were retained. The inhibition percentage (%) was calculated by the following equation: Inhibition (%)=[1−(Asample/Acontrol)]×100. .

T1 sequence (P53341 whole entry): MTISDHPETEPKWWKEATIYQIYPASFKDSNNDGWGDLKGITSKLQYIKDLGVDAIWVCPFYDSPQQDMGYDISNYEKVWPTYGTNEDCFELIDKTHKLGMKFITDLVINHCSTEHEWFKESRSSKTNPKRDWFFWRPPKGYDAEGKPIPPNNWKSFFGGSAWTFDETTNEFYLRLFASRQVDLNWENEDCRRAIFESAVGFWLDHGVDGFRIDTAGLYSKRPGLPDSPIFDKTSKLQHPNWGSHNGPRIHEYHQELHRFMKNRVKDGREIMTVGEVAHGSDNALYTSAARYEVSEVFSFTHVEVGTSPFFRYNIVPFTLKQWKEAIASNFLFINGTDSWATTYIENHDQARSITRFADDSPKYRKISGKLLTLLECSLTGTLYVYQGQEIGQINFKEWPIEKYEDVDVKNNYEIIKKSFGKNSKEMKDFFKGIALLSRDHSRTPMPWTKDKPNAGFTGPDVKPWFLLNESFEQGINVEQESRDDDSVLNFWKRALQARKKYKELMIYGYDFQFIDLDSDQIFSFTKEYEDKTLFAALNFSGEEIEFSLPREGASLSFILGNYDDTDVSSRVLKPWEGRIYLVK

Row | Compound | zone of inhibition at 50 µg/disc [1] | Inhibition type [2] | IC50 [3]
1 | COc1cc(O)c2c(=O)c(O)c(-c3ccc(OC)c(O)c3)oc2c1 [Compound 5, ombuin] | 15 mm | – | –
2 | COc1c(O)cc(-c2oc3c(Br)c(OC)c(Br)c(O)c3c(=O)c2OC)cc1Br [Compound 8, 6,8,5′-Tribromoayanin] | – | noncompetitive | –
3 | COc1c(Br)c(O)c2c(=O)c(OC)c(-c3cc(Br)c(O)c(Br)c3)oc2c1Br [Compound 11, 6,8,3′,5′-Tetrabromokamatakenin] | – | noncompetitive | –
4 | CN[C@@H]1[C@@H](O[C@H]2O[C@H](CO)[C@@H](N)[C@H](O)[C@H]2O)OC2C[C@@H](N)[C@@H](O[C@H]3[C@H](O)[C@@H](O)[C@H](N)C[C@@H]3N)OC2[C@@H]1O (stereo partly drawn) [apramycin, reference compound] | 24 mm | – | –
5 | isoorientin [Compound 15] | – | – | > 300 µM
6 | vitexin [Compound 16] | – | – | > 300 µM
